In patent US20050049294A1, “Methods of using [3.2.0] heterocyclic compounds and analogs thereof” (priority 2003, published 2005):
Values joined by “and” are separate entries in the source; they are usually repeats but may differ in a detail not shown here. Identical values can stand only once. Like-named read-outs stand apart in the source and are kept apart here.

Experiments:
[1] = target: PGPH (caspase-like) activity of rabbit muscle 20S proteasomes (Oryctolagus cuniculus, UniProt A0A5F9DQW2); test: Inhibition of caspase-like (PGPH) activity of 20S proteasome (Z-LLE-AMC); format: biochemical; conditions: Table 3; mean EC50; purified rabbit 20S proteasomes
Method: A commercially available fluorogenic substrate specific for the PGPH activity was used instead of the chymotrypsin substrate supplied in the proteasome assay kit described above.
The substrate Z-LLE-AMC was prepared as a 20 mM stock solution in DMSO, stored at −20° C. The source of the proteasomes was the commercially available kit from Calbiochem (Cat. #539158). As with the chymotrypsin substrate, the proteasome can cleave Z-LLE-AMC into Z-LLE and free AMC. The activity can then be determined by measuring the fluorescence of the released AMC (λex=390 nm and λem=460 nm). The proteasomes were activated with SDS and held on ice as per manufacturer's recommendation. […] The series was diluted 20-fold with assay buffer and preincubated with the proteasomes as described for the chymotrypsin-like activity. After addition of substrate, the samples were incubated at 37° C., and release of the fluorescent AMC was monitored in a fluorimeter. All data were collected and plotted as the mean of triplicate points. […] As before, the model chosen was a sigmoidal dose-response, with a variable slope.

MES-SA cells = test: Cell growth inhibition (resazurin, 48 hours), MES-SA
[2] = test system: LeTx-induced cytotoxicity of RAW264.7 cells; test: cells; conditions: Mus musculus
RPMI 8226 cells = test: Cell growth inhibition (resazurin, 48 hours), RPMI 8226
OVCAR-3 cells = test: Cell growth inhibition (resazurin, 48 hours), OVCAR-3; format: cell-based, human
PC-3 cells = test: Cell growth inhibition (resazurin, 48 hours), PC-3; format: cell-based, human
HT-29 cells = test: Cell growth inhibition (resazurin, 48 hours), HT-29; format: cell-based; conditions: Homo sapiens
B16-F10 cells = test: Cell growth inhibition (resazurin, 48 hours), B16-F10; format: cell-based, mouse
[3] = test system: IκBα in HEK293 cells and NF-κB/Luc 293 reporter clone; test: Western blot of phosphorylated-IκBα and total IκBα; format: cell-based, human; conditions: 50 and 500 nM, 1 hour pre-treatment, TNF-α 10 ng/mL 30 minutes
Method: Endogenous protein levels were assessed in both HEK293 cells and the NF-κB/Luc 293 reporter clone.
Antibodies against total and phosphorylated forms of IκBα were used to determine the endogenous level of each protein and anti-Tubulin antibody was used to confirm equal loading of protein.

[4] = test system: 60 human tumor cell lines; test: NCI screen of 60 human tumor cell lines; format: cell-based; conditions: 48 h, read-out: mean GI50
MIA PaCa-2 cells = test: Cell growth inhibition (resazurin, 48 hours), MIA PaCa-2; format: cell-based; conditions: Table 2, MIA PaCa-2, human pancreatic carcinoma, read-out: EC50 (nM), mean ± SD
CYP2C19 = CYP2C19 (Homo sapiens, UniProt P33261); test: Preliminary P450 inhibition screen, CYP2C19
Text: (§1) These studies consisted of solubility assessment, LogD^7.4 determination and a preliminary screen to detect cytochrome P450 enzyme inhibition.

DU 145 cells = test: Cell growth inhibition (resazurin, 48 hours), DU 145; format: cell-based, human; conditions: for EC50: read-out: EC50 (nM), mean ± SD
CYP1A2 = CYP1A2 (Homo sapiens, UniProt P05177); test: Preliminary P450 inhibition screen, CYP1A2
Text: as §1

CCD-27sk cells = test: Cytotoxic activity against normal human fibroblasts; format: cell-based; conditions: 48h, panel of b226
[5] = test system: LeTx-induced cytotoxicity of RAW264.7 cells
SK-MEL-28 melanoma cells = test: NCI screen, SK-MEL-28; format: cell-based; conditions: Homo sapiens, SK-MEL-28, read-out: LC50
Method: A detailed description of the screening procedure can be found at hypertext transfer protocol (http://) “dtp.nci.nih.gov/branches/btb/ivclsp.html.”
In brief, each of the 60 human tumor cell lines were grown in RPMI 1640 medium, supplemented with 5% fetal bovine serum and 2 mM L-glutamine. Cells were plated at their appropriate density in 96-well microtiter plates and incubated at 37° C., 5% CO2, 95% air and 100% relative humidity. […] Cells were incubated for an additional 48 hours and a sulforhodamine B protein assay was used to estimate cell viability or growth.

CYP2C9 = CYP2C9 (Homo sapiens, UniProt P11712); test: Preliminary P450 inhibition screen, CYP2C9
Text: as §1

[6] = test system: Caspase-3 activity in Jurkat cells; test: Caspase-3 activity assay in Jurkat cells; format: cell-based, human; conditions: EC50 concentration, 19 hours
Method: Jurkat cells were plated at 2×10^6 cells/3 mL per well in a 6-well plate and incubated at 37° C., 5% (v/v) C02 and 95% (v/v) humidity. […] Bhalla, et al., Blood 82:3133 (1993). […] Cells treated with 0.25% DMSO served as the negative control. The cells were collected by centrifugation and the media removed. Cell pellets were processed for the Caspase-3 activity assay as described in the manufacturer's protocol (EnzChek Caspase-3 Assay Kit from Molecular Probes (E-13183; see Appendix G, which form a part of this application and is also available at hypertext transfer protocol on the worldwide web at “probes.com/media/pis/mp13183.pdf.”. In brief, cell pellets were lysed on ice, mixed with the EnzChek Caspase-3 components in a 96-well plate, and then incubated in the dark for 30 minutes prior to reading fluorescence of cleaved benzyloxycarbonyl-DEVD-AMC using a Packard Fusion with λex=485 nm and λem=530 nm filters. Protein concentrations for lysates were determined using the BCA Protein Assay Kit (Pierce) and these values were used for normalization.

[7] = Homo sapiens, MES-SA, read-out: EC50 (nM) MES-SA, Table 16
[8] = read-out: EC50 (nM) MES-SA, Table 16
[9] = RAW264.7, read-out: EC50 (nM), inhibition of RAW 264.7 cell cytotoxicity mediated by anthrax lethal toxin
[10] = Homo sapiens, RPMI-8226, Table 13, RPMI 8226
[11] = Homo sapiens, RPMI-8226, read-out: RPMI 8226 EC50 (nM), Table 15, mean EC50
[12] = Homo sapiens, OVCAR-3, Table 13, OVCAR-3
[13] = Mus musculus, B16-F10, Table 13, B16-F10

Chain of PGPH (caspase-like) activity of rabbit muscle 20S proteasomes (A0A5F9DQW2 1-212): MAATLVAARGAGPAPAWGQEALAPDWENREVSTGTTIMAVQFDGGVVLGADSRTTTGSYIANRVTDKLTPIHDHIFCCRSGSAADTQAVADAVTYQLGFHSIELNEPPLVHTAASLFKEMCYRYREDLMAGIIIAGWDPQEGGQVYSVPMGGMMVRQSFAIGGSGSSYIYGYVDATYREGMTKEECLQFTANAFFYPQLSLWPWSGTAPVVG
Chain of CYP1A2 (P05177 whole entry): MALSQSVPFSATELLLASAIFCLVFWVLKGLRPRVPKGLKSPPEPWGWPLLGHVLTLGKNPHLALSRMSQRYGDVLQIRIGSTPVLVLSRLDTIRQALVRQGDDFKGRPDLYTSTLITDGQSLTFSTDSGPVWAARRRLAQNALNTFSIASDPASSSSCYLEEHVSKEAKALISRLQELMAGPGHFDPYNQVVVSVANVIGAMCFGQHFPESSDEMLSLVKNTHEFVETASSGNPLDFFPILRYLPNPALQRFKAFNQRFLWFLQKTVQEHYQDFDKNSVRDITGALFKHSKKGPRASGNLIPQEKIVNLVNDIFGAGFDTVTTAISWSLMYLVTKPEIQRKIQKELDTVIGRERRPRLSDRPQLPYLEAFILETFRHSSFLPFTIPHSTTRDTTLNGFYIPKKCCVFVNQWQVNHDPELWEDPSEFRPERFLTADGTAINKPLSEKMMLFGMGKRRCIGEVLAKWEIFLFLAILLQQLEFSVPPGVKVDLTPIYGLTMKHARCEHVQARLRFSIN
Chain of CYP2C9 (P11712 whole entry): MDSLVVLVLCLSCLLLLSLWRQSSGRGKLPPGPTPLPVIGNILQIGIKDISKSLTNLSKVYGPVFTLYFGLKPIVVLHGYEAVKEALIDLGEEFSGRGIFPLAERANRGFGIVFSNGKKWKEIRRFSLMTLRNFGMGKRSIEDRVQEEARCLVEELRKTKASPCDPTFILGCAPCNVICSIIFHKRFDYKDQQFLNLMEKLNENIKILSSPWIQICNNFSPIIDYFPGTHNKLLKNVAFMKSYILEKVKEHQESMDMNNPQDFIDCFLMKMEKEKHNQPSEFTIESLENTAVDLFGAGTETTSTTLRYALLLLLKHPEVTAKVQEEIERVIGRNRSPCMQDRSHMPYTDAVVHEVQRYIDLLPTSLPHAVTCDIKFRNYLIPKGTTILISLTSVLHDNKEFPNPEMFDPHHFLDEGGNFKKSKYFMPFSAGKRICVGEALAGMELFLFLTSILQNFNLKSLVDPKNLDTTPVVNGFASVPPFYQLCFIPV
Chain of CYP2C19 (P33261 whole entry): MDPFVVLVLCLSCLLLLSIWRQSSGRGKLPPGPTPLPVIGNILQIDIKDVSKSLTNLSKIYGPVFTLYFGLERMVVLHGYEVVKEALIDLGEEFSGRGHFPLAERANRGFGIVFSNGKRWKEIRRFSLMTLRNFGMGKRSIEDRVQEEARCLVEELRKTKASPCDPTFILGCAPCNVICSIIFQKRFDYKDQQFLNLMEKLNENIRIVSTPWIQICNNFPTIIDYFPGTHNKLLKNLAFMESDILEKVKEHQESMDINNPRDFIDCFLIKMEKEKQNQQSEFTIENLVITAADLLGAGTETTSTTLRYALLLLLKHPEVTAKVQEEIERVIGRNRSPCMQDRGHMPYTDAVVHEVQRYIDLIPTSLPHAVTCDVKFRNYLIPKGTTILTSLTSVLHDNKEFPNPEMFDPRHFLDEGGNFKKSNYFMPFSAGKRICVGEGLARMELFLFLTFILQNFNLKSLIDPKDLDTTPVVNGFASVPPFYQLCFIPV

In the case of `C[C@@]12OC(=O)[C@]1([C@@H](O)C1CCCCC1)NC(=O)[C@@H]2CCCl` [Formula II-2], the EC50 [1] is reported as 1.5 µM, the EC50 (MES-SA cells; [7]) is reported as 193 nM and the EC50 (MES-SA cells; [8]) is reported as 155 nM. The EC50 [2, 9] was 14 nM, the EC50 (RPMI 8226 cells; [10]) was 49 nM and the EC50 (RPMI 8226 cells; [11]) was 47 nM. It also gave an EC50 (RPMI 8226 cells; Table 13, RPMI 8226) of 45 nM, an EC50 (OVCAR-3 cells; [12]) of 188 nM and an EC50 (OVCAR-3 cells; Table 13, OVCAR-3) of 251 nM. It also gave an EC50 (PC-3 cells; Homo sapiens, Table 13, PC-3, read-out: EC50) of 284 ± 110 nM, an EC50 (HT-29 cells; HT-29) of 129 ± 21 nM and an EC50 (B16-F10 cells; [13]) of 194 nM.
`C[C@@]12OC(=O)[C@]1([C@@H](O)C1CCCCC1)NC(=O)[C@@H]2CCBr` [Formula II-4] showed an EC50 (MES-SA cells; [7]) of 163 nM, an EC50 [2, 9] of 14 nM and an EC50 (RPMI 8226 cells; [10]) of 57 nM. The EC50 (RPMI 8226 cells; [11]) was 54 nM, the EC50 (OVCAR-3 cells; [12]) was > 6320 nM and the EC50 (PC-3 cells; Homo sapiens, PC-3) was 204 ± 49 nM. The EC50 (HT-29 cells; Table 13, HT-29, read-out: EC50) was 132 ± 36 nM, the EC50 (B16-F10 cells; [13]) was 163 nM and the EC50 (B16-F10 cells; Table 13, B16-F10) was 175 nM.
For `C[C@@]12OC(=O)[C@]1([C@@H](O)[C@@H]1C=CCCC1)NC(=O)[C@@H]2CCCl` [Formula II-16, Salinosporamide A], the “degradation of total IκBα and phospho-IκBα level” value [3] was “reduced the degradation of total IκBα but also retained the phospho-IκBα level”, the GI50 [4] was < 0.01 µM and the EC50 (MIA PaCa-2 cells) was 46 nM. It also gave an inhibition at 10 µM (CYP2C19) of 22%, an EC50 (DU 145 cells; Homo sapiens, Table 6, DU 145 (n = 3)) of 37 ± 10 nM and an EC50 (DU 145 cells; Table 2, DU 145, human prostate carcinoma, 48 hours) of 37 ± 10 nM. For the same molecule, the “% cytotoxicity, mean ± SD” value (DU 145 cells; Table 6, DU 145 (n = 3)) was 75 ± 4%, the inhibition at 10 µM (CYP1A2) was 3% and the EC50 (CCD-27sk cells) was 0.196 µM. For the same molecule, the EC50 (MES-SA cells; Homo sapiens, MES-SA, read-out: EC50 (nM), mean) was 20 ± 5 nM, the “% cytotoxicity, mean ± SD” value (MES-SA cells; Table 7, MES-SA) was 94 ± 1% and the “cell-viability, compound + LeTx” value [5] was 82%. The “increase in the viability of LeTx-treated cells compared to LeTx treatment alone” value [5] was 10 fold, the EC50 ([5]; read-out: average EC50, viability of LeTx-treated cells) was 0.0036 µM and the EC50 ([2]; RAW264.7, read-out: average EC50, viability of LeTx-treated cells) was < 4 nM. The EC50 (RPMI 8226 cells; Homo sapiens, RPMI-8226, 48 h, read-out: EC50 (nM), mean ± SD) was 8.6 ± 1.9 nM, the EC50 (RPMI 8226 cells; Homo sapiens, RPMI-8226, read-out: EC50 (nM), mean ± SD) was 10 ± 3 nM and the “% cytotoxicity, mean ± SD” value (RPMI 8226 cells; Table 6, RPMI 8226 (n = 5)) was 94 ± 1%. The “% cytotoxicity, mean ± SD” value (RPMI 8226 cells; Table 9, RPMI 8226, 48 hour) was 94 ± 0%, the EC50 (OVCAR-3 cells; Homo sapiens, OVCAR-3, 48 h) was 69 nM and the EC50 (OVCAR-3 cells; Homo sapiens, OVCAR-3, 48 h, read-out: EC50 (nM), mean ± SD) was 49 ± 31 nM. The CC50 (SK-MEL-28 melanoma cells) was < 0.01 µM, the EC50 (PC-3 cells; Homo sapiens, PC-3, 48 h, PC3, 48h, panel of b226) was 78 nM and the EC50 (PC-3 cells; Homo sapiens, PC-3, 48 h, read-out: EC50 (nM), mean ± SD, Table 2, PC-3, human prostate adenocarcinoma, 48 hours) was 64 ± 26 nM. For the same molecule, the EC50 (PC-3 cells; Homo sapiens, PC-3, Table 6, PC-3 (n = 2)) was 31 nM, the “% cytotoxicity” value (PC-3 cells; Table 6, PC-3 (n = 2)) was 88% and 89% and the EC50 (PC-3 cells; Table 6, PC-3 (n = 2)) was 25 nM. The EC50 (HT-29 cells; HT-29, 48 h) was 47 nM, the EC50 (HT-29 cells; HT-29, 48 h, read-out: EC50 (nM), mean ± SD) was 40 ± 26 nM and the inhibition at 10 µM (CYP2C9) was 6%. For the same molecule, the Caspase-3 activity [6] was “activation of Caspase-3”, the EC50 (B16-F10 cells; Mus musculus, B16-F10, 48 h) was 33 nM and the EC50 (B16-F10 cells; Mus musculus, B16-F10, 48 h, read-out: EC50 (nM), mean ± SD) was 47 ± 20 nM.
`C[C@@]12OC(=O)[C@]1([C@@H](O)[C@@H]1C=CCCC1)NC(=O)[C@@H]2CCBr` [Formula II-18] gave an EC50 [1] of 0.25 µM, an EC50 (MES-SA cells; [7]) of 22 nM and an EC50 (MES-SA cells; [8]) of 17 nM. The EC50 [2, 9] was 4 nM, the EC50 (RPMI 8226 cells; Homo sapiens, RPMI-8226, 48 h, read-out: EC50, μM (mean ± SD), Table 9, RPMI 8226, 48 hour) was 17 nM and the EC50 (RPMI 8226 cells; [10]) was 6.3 nM. The EC50 (RPMI 8226 cells; [11]) was 6.3 nM, the “% cytotoxicity, mean ± SD” value (RPMI 8226 cells; Table 9, RPMI 8226, 48 hour) was 94, 94% and the EC50 (RPMI 8226 cells; read-out: EC50, μM (mean ± SD), Table 9, RPMI 8226, 48 hour) was 22 nM. For the same molecule, the EC50 (OVCAR-3 cells; [12]) was > 2000 nM, the EC50 (PC-3 cells; Homo sapiens, PC-3) was 35 ± 5.6 nM and the EC50 (HT-29 cells; HT-29) was 18 ± 7.8 nM. The EC50 (B16-F10 cells; [13]) was 19 nM and the EC50 (B16-F10 cells; Table 13, B16-F10) was 36 nM.
